According to patent US20080194679A1, “Compositions and methods for increasing metabolic activity in animal tissue” (priority 2007, published 2008):
Marks after values point to notes of the source that are not given here.

Key:
[1] = Iron source fed to gestating sows; piglet blood hemoglobin, hematocrit and serum ferritin at farrowing; format: in vivo, sows / piglets; conditions: sows fed iron source daily from 4 weeks before farrowing
Description: Ferrous iron was chelated to various high nitrogen-containing amino acid chelates. Six grams of such a chelate formula (0.6 g Fe) was fed daily to gestating sows beginning 4 weeks before expected farrowing. Another group of gestating sows received 2 g daily of ferrous fumarate (0.67 g Fe) for the same period. One week prior to farrowing, the dosages of iron were doubled for each group.
At farrowing blood samples were taken from each piglet and assayed for hemoglobin, hematocrit, and serum ferritin. The hemoglobin and hematocrit represent current iron status but serum ferritin represents iron storage for future use.

[2] = chicks, 21 Day, 40 mg zinc per day per kg feed
Procedure: (§1) A group of one day old chicks were administered 40 mg zinc per day per kg feed for 21 consecutive days. […] At the end of 21 days, all chicks in all groups were killed, freeze dried, and a whole body assay for zinc performed.

[3] = chicks, 21 days, 40 mg zinc per day per kg feed
Procedure: as §1

[4] = Isotope study: deposition of 65zinc into male sex organ tissues after single intravenous dose; format: in vivo; conditions: zinc sufficient adult male rats, single I.V. dose 0.06 mg zinc, 24 hours post-dosing
Procedure: In an isotope study, three groups of zinc sufficient adult male rats (6/group) received a single intravenous (I.V.) dose of 0.06 mg zinc containing 10 microcurines of zinc chelated to either arginine or glycine or as zinc chloride (ZnCl2). The arginine contained about twice as much nitrogen bonded to the zinc atom as did glycine. The ZnCl2 had no nitrogen bonded to the zinc. Twenty four hours post-dosing, all animals were sacrificed and their testes, epididymis, and seminal vesicles were assayed for zinc. The male sex organs were targeted for these zinc assays because of the dominant role zinc plays in their proper functioning. In theory, the uptake of zinc from the three sources into the tissues should have been equivalent since all three sources were administered by I.V. and none of the animals was zinc deficient.
As noted above, arginine has about twice as much nitrogen in the ligand as glycine.

[5] = Tied-off ileum section dosed with 65Zn solution; 65Zn in liver, heart and spleen by liquid scintillation; format: in vivo; conditions: non-fasted rats, 1×10^−4M solution in tied off ileum section, 2 hours post dosing
Procedure: Non-fasted rats were first anesthetized and then their intestines exposed. A 10 cm section of the ileum was tied off at both ends extending 15 cm to 5 cm proximal to the ileoceal valve. At each end, a 0.5 cm incision was made allowing the tied off section to be thoroughly washed with Ringers solution via the incisions. A solution containing ^65ZnCl2 or ^65Zn Histidine (1×10^−4M) was introduced into the tied off section. At 2 hours post dosing, the rats were killed by cervical dislocation. Their livers, hearts, and spleens were taken, weighed, dissected, and assayed by liquid scintillation for ^65Zn.

Molecule: O=C([O-])/C=C/C(=O)[O-].[Fe+2] [Ferrous Fumarate, ferrous fumarate]
- Serum Ferritin ([1]; a/b P < 0.01): 20.1^b ng/ml
- Hematocrit ([1]; doubled in the last week): 33.2%
- Hemoglobin ([1]; doubled in the last week): 9.7 g/dL

Molecule: zinc glycinate (1:1) [Zn Glycinate (1:1)]
- Body Weight [2]: 817.08 g
- Gain/Feed [2]: 0.77 g
- zinc retention in the body (in words) [3]: similar

Molecule: NCC(=O)[O-].NCC(=O)[O-].[Zn+2] [Zn Bisglycinate (2:1), zinc bisglycinate (2:1)]
- Body Weight [2]: 812.55 g
- Gain/Feed [2]: .078 g
- zinc retention in the body (in words) [3]: increased to some degree

Molecule: zinc bisarginate (2:1) [Zn Bisarginate (2:1)]
- Body Weight [2]: 829.15 g
- Gain/Feed [2]: .078 g
- zinc retention in the body (in words) [3]: increased over zinc bisglycinate (2:1) significantly

Molecule: O=[N+]([O-])[O-].O=[N+]([O-])[O-].[Zn+2] [Zn Nitrate, zinc nitrate]
- Body Weight [2]: 734.98 g
- Gain/Feed [2]: 0.74 g
- zinc retention in the body (in words) [3]: similar

Molecule: [Cl-].[Cl-].[Zn+2] [^65Zn Chloride, zinc chloride]
- Deposition of ^65zinc into tissue: Epididymis ([4]; epididymis): Negligible
- Deposition of ^65zinc into tissue: Seminal Vesicle ([4]; seminal vesicle): Negligible
- Deposition of ^65zinc into tissue: Testes ([4]; testes): Negligible
- ^65Zn in tissue: Heart ([5]; heart): 1.00 ± 0.33 number × 10^−10 Zn/gm
- ^65Zn in tissue: Liver ([5]; liver): 8.67 ± 5.67 number × 10^−10 Zn/gm
- ^65Zn in tissue: Spleen ([5]; spleen): 3.50 ± 0.25 number × 10^−10 Zn/gm
